According to the supplement of paper PMC11061612:

How the values were obtained:
M14 (Melanoma) [1] = assay: Bliss excess, mean over the matrix (fraction); higher = more synergy
Procedure, shortened: (§1)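 Cell lines in DMEM/F12 or RPMI with 10% FBS were plated in 1536-well plates, held 24 hours at 37°C, 5% CO2, then given two-drug dose matrices for 72 hours (DMSO typically 0.2%). Viability was read by CellTiter-Glo 2.0 luminescence and scaled as inhibition from 0 (vehicle wells) to 1 (blank wells). Combination Emax is the second-highest inhibition in the matrix; Bliss excess is observed combination effect minus expected EA + EB − EA·EB, EA and EB being single-agent effects.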

A375 (Melanoma) = assay: combination Emax (second highest fraction inhibited in the dose matrix, 72 h); higher = more inhibition; extreme values may be limits of the assay
Procedure, shortened: as §1

[2] = test system: BC-1 (B-Cell Non-Hodgkin's Lymphoma); assay: as above
Procedure, shortened: as §1

C32 (Melanoma) = assay: as above
Procedure, shortened: as §1

[3] = test system: CAL-85-1 (Breast Carcinoma); assay: as above
Procedure, shortened: as §1

[4] = test system: Daudi (Burkitt's Lymphoma); assay: as above
Procedure, shortened: as §1

[5] = test system: GRANTA-519 (B-Cell Non-Hodgkin's Lymphoma); assay: as above
Procedure, shortened: as §1

HT-144 (Melanoma) = assay: as above
Procedure, shortened: as §1

[6] = test system: IGROV-1 (Ovarian Carcinoma); assay: as above
Procedure, shortened: as §1

[7] = test system: JJN-3 (Plasma Cell Myeloma); assay: as above
Procedure, shortened: as §1

[8] = test system: KNS-62 (Squamous Cell Lung Carcinoma); assay: as above
Procedure, shortened: as §1

M14 (Melanoma) [9] = assay: as above
Procedure, shortened: as §1

[10] = test system: NCI-H1435 (Non-Small Cell Lung Carcinoma); assay: as above
Procedure, shortened: as §1

[11] = test system: NCI-H835 (Other Solid Carcinomas); assay: as above
Procedure, shortened: as §1

[12] = test system: RPMI-8402 (T-Lymphoblastic Leukemia); assay: as above
Procedure, shortened: as §1

[13] = test system: SBC-3 (Small Cell Lung Carcinoma); assay: as above
Procedure, shortened: as §1

SK-MEL-24 (Melanoma) = assay: as above
Procedure, shortened: as §1

SK-N-DZ (Neuroblastoma) = assay: as above
Procedure, shortened: as §1

RVH-421 (Melanoma) [14] = assay: Bliss excess, mean over the matrix (fraction); higher = more synergy
Procedure, shortened: as §1

RVH-421 (Melanoma) [15] = assay: combination Emax (second highest fraction inhibited in the dose matrix, 72 h); higher = more inhibition; extreme values may be limits of the assay
Procedure, shortened: as §1
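For Bliss excess, mean over the matrix in this document: after 72 h of two-drug dosing.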

SMILES	Bliss excess (M14 (Melanoma) [1])	combination Emax (A375 (Melanoma))	combination Emax [2]	combination Emax (C32 (Melanoma))	combination Emax [3]	combination Emax [4]	combination Emax [5]	combination Emax (HT-144 (Melanoma))	combination Emax [6]	combination Emax [7]	combination Emax [8]	combination Emax (M14 (Melanoma) [9])	combination Emax [10]	combination Emax [11]	combination Emax [12]	combination Emax [13]	combination Emax (SK-MEL-24 (Melanoma))	combination Emax (SK-N-DZ (Neuroblastoma))	Bliss excess (RVH-421 (Melanoma) [14])	combination Emax (RVH-421 (Melanoma) [15])
CN(C)CCCOc1ccc(-c2ccc3ncc4c(c3c2)n(C2CCOCC2)c(=O)n4C)cn1 [AZD0156] + O=C(c1cc(Cc2n[nH]c(=O)c3ccccc23)ccc1F)N1CCN(C(=O)C2CC2)CC1 [Olaparib] (first compound max 3 µM, partner max 3 µM)	0.0435	0.29	0.566	0.164	0.172	0.48	0.151	0.381	0.574	0.213	0.367	0.365	0.161	0.224	0.666	0.465	0.227	0.373		
COc1cccc2c1C(=O)c1c(O)c3c(c(O)c1C2=O)C[C@@](O)(C(=O)CO)C[C@@H]3O[C@H]1C[C@H](N)[C@H](O)[C@H](C)O1 [Doxorubicin] + Cc1cc2ncnn2cc1Nc1ncc2c(n1)n(C1CCOCC1)c(=O)n2C [AZD7648] (first compound max 1 µM, 7x7, partner max 10 µM)		0.949	1	0.68	0.634	0.956	0.856	0.583	0.611	0.735	0.484		0.198	0.516	1	0.968	0.725	0.613	0.0105	0.404
COc1cccc(OCCCN)c1-c1cc(Nc2cnc(C#N)cn2)n[nH]1 [Prexasertib] + C=CCn1c(=O)c2cnc(Nc3ccc(N4CCN(C)CC4)cc3)nc2n1-c1cccc(C(C)(C)O)n1 [AZD1775] (first compound max 1 µM, partner max 1 µM)		0.952	1	0.721	0.716	0.968	0.867	0.838	0.788	0.985	0.684		0.403	0.684	1	0.923	0.703	1	-0.0524	0.341
COc1cccc(OCCCN)c1-c1cc(Nc2cnc(C#N)cn2)n[nH]1 [Prexasertib] + CCc1c2c(nc3ccc(O)cc13)-c1cc3c(c(=O)n1C2)COC(=O)[C@]3(O)CC [SN-38] (first compound max 1 µM, 7x7, partner max 0.3 µM)		0.962	0.997	0.714	0.85	0.987	1	0.912	0.863	0.981	0.874		0.481	0.632	1	0.957	0.837	1	-0.069	0.363
COc1cccc(OCCCN)c1-c1cc(Nc2cnc(C#N)cn2)n[nH]1 [Prexasertib] + CN(C)CCCOc1ccc(-c2ccc3ncc4c(c3c2)n(C2CCOCC2)c(=O)n4C)cn1 [AZD0156] (first compound max 1 µM, 7x7, partner max 1 µM)		0.851	0.984	0.774	0.315	0.965	0.873	0.744	0.788	0.976	0.659		0.365	0.366	1	0.8	0.624	1	-0.0325	0.314
COc1cccc(OCCCN)c1-c1cc(Nc2cnc(C#N)cn2)n[nH]1 [Prexasertib] + C[C@@H]1COCCN1C2=NC(=NC(=C2)C3(CC3)[S@](=N)(=O)C)C4=C5C=CNC5=NC=C4 [AZD6738] (first compound max 1 µM, 7x7, partner max 10 µM)		0.853	0.996	0.735	0.477	0.939	0.856	0.853	0.754	0.971	0.555		0.283	0.372	1	0.762	0.646	1	-0.0225	0.244
COc1cccc(OCCCN)c1-c1cc(Nc2cnc(C#N)cn2)n[nH]1 [Prexasertib] + Cc1cc2ncnn2cc1Nc1ncc2c(n1)n(C1CCOCC1)c(=O)n2C [AZD7648] (first compound max 1 µM, 7x7, partner max 10 µM)		0.877	0.991	0.753	0.477	0.947	0.852	0.72	0.76	0.966	0.601		0.336	0.36	1	0.755	0.61	1	-0.0417	0.344
COc1cccc(OCCCN)c1-c1cc(Nc2cnc(C#N)cn2)n[nH]1 [Prexasertib] + O=C(c1cc(Cc2n[nH]c(=O)c3ccccc23)ccc1F)N1CCN(C(=O)C2CC2)CC1 [Olaparib] (first compound max 1 µM, 7x7, partner max 10 µM)		0.815	0.986	0.769	0.548	0.945	0.865	0.712	0.705	0.978	0.576		0.345	0.256	1	0.744	0.607	0.97	-0.0491	0.3
CCc1c2c(nc3ccc(O)cc13)-c1cc3c(c(=O)n1C2)COC(=O)[C@]3(O)CC [SN-38] + CN(C)CCCOc1ccc(-c2ccc3ncc4c(c3c2)n(C2CCOCC2)c(=O)n4C)cn1 [AZD0156] (first compound max 0.3 µM, 7x7, partner max 1 µM)		0.993	0.979	0.688	0.639	0.95	0.93	0.753	0.691	0.626	0.872		0.202	0.242	1	0.919	0.825	0.901	-0.0576	0.191
CCc1c2c(nc3ccc(O)cc13)-c1cc3c(c(=O)n1C2)COC(=O)[C@]3(O)CC [SN-38] + O=C(c1cc(Cc2n[nH]c(=O)c3ccccc23)ccc1F)N1CCN(C(=O)C2CC2)CC1 [Olaparib] (first compound max 0.3 µM, 7x7, partner max 10 µM)		0.949	1	0.664	0.702	0.979				0.688	0.905		0.326	0.268	1	0.979	0.775		-0.0041	0.265
CC1(C)CCC(CN2CCN(c3ccc(C(=O)NS(=O)(=O)c4ccc(NCC5CCOCC5)c([N+](=O)[O-])c4)c(Oc4cnc5[nH]ccc5c4)c3)CC2)=C(c2ccc(Cl)cc2)C1 [Venetoclax] + C[C@@H](Nc1cc(F)cc(F)c1)c1cc(C(=O)N(C)C)cc2c(=O)cc(N3CCOCC3)oc12 [AZD8186] (first compound max 1 µM, 7x7, partner max 3 µM)		0.109	0.264	0.26	0.146	0.271	0.437	0.159	0.668	0.232	0.133		0.203		0.431	0.507	0.321	0.256	-0.0084	0.326
CC1(C)CCC(CN2CCN(c3ccc(C(=O)NS(=O)(=O)c4ccc(NCC5CCOCC5)c([N+](=O)[O-])c4)c(Oc4cnc5[nH]ccc5c4)c3)CC2)=C(c2ccc(Cl)cc2)C1 [Venetoclax] + Cc1cc2ncnn2cc1Nc1ncc2c(n1)n(C1CCOCC1)c(=O)n2C [AZD7648] (first compound max 1 µM, 7x7, partner max 10 µM)		0.233	0.516	0.396	0.284	0.247	0.332	0.222	0.539	0.327	0.219		0.165		0.287	0.543	0.248	0.399	-0.0443	0.221
CC1(C)CCC(CN2CCN(c3ccc(C(=O)NS(=O)(=O)c4ccc(NCC5CCOCC5)c([N+](=O)[O-])c4)c(Oc4cnc5[nH]ccc5c4)c3)CC2)=C(c2ccc(Cl)cc2)C1 [Venetoclax] + Cn1cnc2c(F)c(Nc3ccc(Br)cc3Cl)c(C(=O)NOCCO)cc21 [Selumetinib] (first compound max 1 µM, 7x7, partner max 3 µM)		0.686	0.408	0.941	0.356	0.115	0.323	0.654	0.595	0.462	0.253		0.156		0.084	0.605	0.553	0.246	-0.0317	0.385
